In patent publication US20070004010A1, “Engineered Enzymes and Their Use for Synthesis of Thioglycosides” (THE UNIVERSITY OF BRITISH COLUMBIA, priority 2002, published 2007):

T1: Cex E127A (Cellulomonas fimi, UniProt P07986, E168A)
T1 sequence (P07986 42-484 E168A): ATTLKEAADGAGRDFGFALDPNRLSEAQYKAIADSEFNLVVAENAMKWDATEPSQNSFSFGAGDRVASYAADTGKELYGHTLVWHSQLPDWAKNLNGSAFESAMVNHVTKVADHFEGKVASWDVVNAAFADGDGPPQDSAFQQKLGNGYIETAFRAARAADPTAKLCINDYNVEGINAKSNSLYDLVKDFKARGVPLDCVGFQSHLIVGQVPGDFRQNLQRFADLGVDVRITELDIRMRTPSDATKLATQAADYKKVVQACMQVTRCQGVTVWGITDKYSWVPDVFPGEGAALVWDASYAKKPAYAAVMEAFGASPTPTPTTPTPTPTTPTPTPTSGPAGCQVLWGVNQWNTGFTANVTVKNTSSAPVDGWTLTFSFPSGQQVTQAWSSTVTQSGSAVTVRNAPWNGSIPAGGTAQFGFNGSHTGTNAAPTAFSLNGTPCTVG

B1: Cex E127A: endo acting retaining β-glycosidase from Cellulomonas fimi (Cex) mutated at the catalytic acid/base residue E127 (protein, UniProt P07986 42-484, looked up, variant E127A)
Exoglucanase/xylanase: T1 sequence (P07986 42-484 E168A)

Experiments:
Abg E171A [1] = target: T2, Abg E171A (Agrobacterium sp., UniProt P12614, E171A); assay type: biochemical; conditions: acceptor with Abg E171A in the presence of DNP-Glc as donor
Man2A E429A [2] = assay: Control reaction with parent sugars as acceptors, DNP-Man as donor; assay type: biochemical, Cellulomonas fimi; conditions: acceptor for Man2A E429A in the presence of DNP-Man
Abg E171A [3] = target: T2, Abg E171A; assay: Kinetic analysis of thioglycoligase reaction (DNP release) with Abg E171A; assay type: biochemical; conditions: acceptor; donor 2,4-DNP β-D-glucopyranoside (125 mM); 30° C., 50 mM NaPi, 145 mM NaCl, pH 7.1; calculated from the highest observed rate of DNP release
Description: Kinetic analysis was performed with 2,4-DNP β-D-glucopyranoside (125 mM) as donor and with pNP 4-deoxy-4-thio-β-D-glucopyranoside as acceptor at 30° C. in 50 mM NaPi, 145 mM NaCl, pH 7.1 (FIG. 7). It has been shown previously, that the KM− value of the donor is extremely low (<1 μM), and that no donor substrate inhibition is seen. Enzymatic background hydrolysis of the donor together with acceptor substrate inhibition make it difficult to exactly determine K′M and k′cat, but it can be calculated from the highest observed rate of DNP release, that k′cat is higher than 50 min^−1.

Cex E127A = target: T1, Cex E127A; assay: Functional donors and acceptors for Cex E127A; assay type: biochemical
Man2A E429A [4] = assay: Competition study for evaluation of relative rates of transfer to S- and O-acceptors (HPLC); assay type: biochemical, Cellulomonas fimi; conditions: 6 vs pNP-Xyl, 5.5 mM each; donor DNP-Man; pH 6.8, RT; integration of HPLC peaks
Description: Arrows indicate the elution of the O-linked disaccharides, 10 is the S-linked disaccharide.
In order to assess the relative rates of transfer to the oxygen and sulfur nucleophiles in the case of Man 2A E429A we established a competition reaction in which equimolar amounts of pNP-Xyl and its 4-thio analogue 6 were incubated together with DNP-Man as donor and Man2A E429A (FIG. 3). When the concentration of donor was limiting (one third of the concentration of acceptors) we saw exclusive formation of the S-linked disaccharide 10 (a). However, upon addition of further donor to a final concentration twice that of the acceptors the O-linked disaccharides (indicated by arrows) were formed (b).
pNP-Xyl (5.5 mM), 6 (5.5 mM), DNP-Man (3.75 mM) and Man2A E429A (˜1 mg ml.) were incubated in phosphate buffer (50 mM, pH 6.8) for 3 h at RT. After removal of an aliquot DNP-Man was added to a final concentration of 22 mM. After 5 h at RT another aliquot was taken. The aliquots were diluted 1:3 with acetonitrile and centrifuged before applying to the HPLC. HPLC analysis was performed using a Waters 600E multisolvent delivery system with acetonitrile (A)/water (B) as mobile phase (linear gradient: 80% A→60% A in 15 min, flow: 1 ml min^−1), a Waters 2486 Dual λ Absorbance Detector (detection at 280 nm), a TOSO HAAS Amide 80 column (4.6×250 mm) and Millenium 3.20 software.

[5] = Thioglycoligase function of Cex acid/base mutant; assay type: biochemical, Cellulomonas fimi; conditions: mutation of the catalytic acid/base residue E127

T2 sequence (P12614 whole entry E171A, looked up): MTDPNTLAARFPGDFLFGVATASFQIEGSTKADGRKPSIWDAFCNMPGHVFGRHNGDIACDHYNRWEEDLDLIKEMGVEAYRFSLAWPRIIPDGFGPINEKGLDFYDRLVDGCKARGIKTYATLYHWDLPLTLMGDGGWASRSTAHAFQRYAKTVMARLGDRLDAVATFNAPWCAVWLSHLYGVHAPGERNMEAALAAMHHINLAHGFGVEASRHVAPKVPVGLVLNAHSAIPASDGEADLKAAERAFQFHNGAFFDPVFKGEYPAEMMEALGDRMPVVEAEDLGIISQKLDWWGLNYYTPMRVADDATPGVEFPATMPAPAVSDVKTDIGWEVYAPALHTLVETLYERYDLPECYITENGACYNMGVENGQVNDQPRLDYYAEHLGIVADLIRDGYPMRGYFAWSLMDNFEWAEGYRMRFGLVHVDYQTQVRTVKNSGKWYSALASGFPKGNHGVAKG

Molecule	formation of disaccharides (Abg E171A [1])	formation of disaccharide products (Man2A E429A [2])	other results
O=[N+]([O-])c1ccc(O[C@@H]2OC[C@@H](O)[C@H](O)[C@H]2O)cc1 [pNP-Xyl, para-nitrophenyl β-D-xylopyranoside]	no formation of disaccharides	only very slowly	–
O=[N+]([O-])c1ccc(O[C@@H]2O[C@H](CO)[C@@H](S)[C@H](O)[C@H]2O)cc1 [compound 3, para-nitrophenyl 4-deoxy-4-thio-β-D-glucopyranoside]	–	–	k′cat (Abg E171A [3]): higher than 50 min^−1; acceptor function (Cex E127A): Functional acceptors
O=[N+]([O-])c1ccc(O[C@@H]2O[C@H](CO)[C@@H](O)[C@H](O)[C@H]2O)cc1 [pNP-Glc, para-nitrophenyl β-D-glucopyranoside]	no formation of disaccharides	only very slowly	–
O=[N+]([O-])c1ccc(O[C@@H]2OC[C@@H](S)[C@H](O)[C@H]2O)cc1 [compound 6, p-Nitrophenyl 4-deoxy-4-thio-β-D-xylopyranoside]	–	–	transfer to the thiosugar acceptor faster than transfer to its oxygen analogue (Man2A E429A [4]): at least 100 fold
B1	–	–	thioglycoligase function [5]: functional thioglycoligase
